Laboratory results: ChEMBL document CHEMBL5465560, “Selectivity Literature for EUbOPEN Chemogenomic Library” (2024)

How the values were obtained:
[1] = biological target: Serine/threonine-protein kinase Chk2 (Homo sapiens) (UniProt O96017); experiment: Selectivity interaction (Kinase panel (Z-LYTE Assay)) EUB0001632a CHEK2; conditions: at 10 µM
[2] = biological target: T1, Testis-specific serine/threonine-protein kinase 3 (Homo sapiens) (UniProt Q96PN8); experiment: Selectivity interaction (KinomeScan (DiscoverX)) EUB0000695a TSSK3; conditions: at 100 nM
T1 sequence (whole entry): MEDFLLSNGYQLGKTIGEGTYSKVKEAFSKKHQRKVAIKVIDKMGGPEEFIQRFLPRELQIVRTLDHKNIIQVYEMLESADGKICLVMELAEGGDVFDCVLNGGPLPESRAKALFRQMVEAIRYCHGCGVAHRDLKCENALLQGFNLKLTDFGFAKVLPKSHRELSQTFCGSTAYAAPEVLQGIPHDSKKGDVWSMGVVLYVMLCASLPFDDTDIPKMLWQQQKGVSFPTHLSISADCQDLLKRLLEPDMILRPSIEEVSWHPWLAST

[3] = biological target: T2, Serine/threonine-protein kinase RIO1 (Homo sapiens) (UniProt Q9BRS2); experiment: Selectivity interaction (KinomeScan (DiscoverX)) EUB0000595a RIOK1; conditions: at 10 µM
T2 sequence (whole entry): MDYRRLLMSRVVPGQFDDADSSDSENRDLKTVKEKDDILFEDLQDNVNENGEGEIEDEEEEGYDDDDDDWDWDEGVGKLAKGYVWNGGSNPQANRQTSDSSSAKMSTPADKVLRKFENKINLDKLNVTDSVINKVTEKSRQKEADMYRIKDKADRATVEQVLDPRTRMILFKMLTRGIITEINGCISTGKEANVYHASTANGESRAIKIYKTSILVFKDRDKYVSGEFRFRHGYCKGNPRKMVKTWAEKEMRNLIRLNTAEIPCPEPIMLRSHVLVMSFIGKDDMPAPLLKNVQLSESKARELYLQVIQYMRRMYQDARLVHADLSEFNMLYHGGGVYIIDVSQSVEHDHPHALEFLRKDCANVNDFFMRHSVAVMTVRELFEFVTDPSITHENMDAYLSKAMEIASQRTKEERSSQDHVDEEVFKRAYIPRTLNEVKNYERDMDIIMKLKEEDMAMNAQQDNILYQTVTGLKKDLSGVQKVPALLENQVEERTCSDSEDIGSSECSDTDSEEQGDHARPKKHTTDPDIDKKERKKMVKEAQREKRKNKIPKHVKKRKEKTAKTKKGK

[4] = biological target: Ephrin type-A receptor 2 (Homo sapiens) (UniProt P29317); experiment: Selectivity interaction (KinomeScan (DiscoverX)) EUB0000229b EPHA2; conditions: at 10 µM
[5] = biological target: T3, Serine/threonine-protein kinase D1 (Homo sapiens) (UniProt Q15139); experiment: Selectivity interaction (KinomeScan (DiscoverX)) EUB0000229b PRKD1; conditions: at 10 µM
T3 sequence (whole entry): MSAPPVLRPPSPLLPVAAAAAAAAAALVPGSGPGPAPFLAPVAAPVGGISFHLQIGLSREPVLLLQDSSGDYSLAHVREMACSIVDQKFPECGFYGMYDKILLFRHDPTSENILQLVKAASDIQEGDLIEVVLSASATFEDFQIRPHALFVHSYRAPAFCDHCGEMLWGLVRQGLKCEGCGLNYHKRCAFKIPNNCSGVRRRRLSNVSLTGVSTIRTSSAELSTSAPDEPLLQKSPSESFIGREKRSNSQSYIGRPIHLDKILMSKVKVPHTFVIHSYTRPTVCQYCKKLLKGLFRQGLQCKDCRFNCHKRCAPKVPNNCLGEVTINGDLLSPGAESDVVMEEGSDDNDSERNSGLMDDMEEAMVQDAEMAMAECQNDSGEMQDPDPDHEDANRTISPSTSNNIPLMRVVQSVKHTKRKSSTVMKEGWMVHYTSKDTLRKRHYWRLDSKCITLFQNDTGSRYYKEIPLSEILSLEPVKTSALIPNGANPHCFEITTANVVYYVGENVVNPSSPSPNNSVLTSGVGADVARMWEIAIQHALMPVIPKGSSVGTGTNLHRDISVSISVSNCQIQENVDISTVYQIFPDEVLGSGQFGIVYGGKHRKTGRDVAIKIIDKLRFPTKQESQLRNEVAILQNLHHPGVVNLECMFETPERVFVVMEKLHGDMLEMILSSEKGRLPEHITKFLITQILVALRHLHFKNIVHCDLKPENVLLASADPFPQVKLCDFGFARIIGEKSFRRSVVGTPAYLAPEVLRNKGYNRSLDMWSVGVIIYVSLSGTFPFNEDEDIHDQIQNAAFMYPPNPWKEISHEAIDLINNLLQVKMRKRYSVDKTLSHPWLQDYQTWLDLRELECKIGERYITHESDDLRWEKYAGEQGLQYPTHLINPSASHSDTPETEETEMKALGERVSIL

[6] = biological target: T4, Glycogen synthase kinase-3 beta (Homo sapiens, UniProt P49841); experiment: Selectivity interaction (KinomeScan (DiscoverX)) EUB0000045b GSK3B
[7] = biological target: T5, Tyrosine-protein kinase ZAP-70 (Homo sapiens) (UniProt P43403); experiment: Selectivity interaction (KinomeScan (DiscoverX)) EUB0000045b ZAP70; conditions: at 1 µM
T5 sequence (whole entry): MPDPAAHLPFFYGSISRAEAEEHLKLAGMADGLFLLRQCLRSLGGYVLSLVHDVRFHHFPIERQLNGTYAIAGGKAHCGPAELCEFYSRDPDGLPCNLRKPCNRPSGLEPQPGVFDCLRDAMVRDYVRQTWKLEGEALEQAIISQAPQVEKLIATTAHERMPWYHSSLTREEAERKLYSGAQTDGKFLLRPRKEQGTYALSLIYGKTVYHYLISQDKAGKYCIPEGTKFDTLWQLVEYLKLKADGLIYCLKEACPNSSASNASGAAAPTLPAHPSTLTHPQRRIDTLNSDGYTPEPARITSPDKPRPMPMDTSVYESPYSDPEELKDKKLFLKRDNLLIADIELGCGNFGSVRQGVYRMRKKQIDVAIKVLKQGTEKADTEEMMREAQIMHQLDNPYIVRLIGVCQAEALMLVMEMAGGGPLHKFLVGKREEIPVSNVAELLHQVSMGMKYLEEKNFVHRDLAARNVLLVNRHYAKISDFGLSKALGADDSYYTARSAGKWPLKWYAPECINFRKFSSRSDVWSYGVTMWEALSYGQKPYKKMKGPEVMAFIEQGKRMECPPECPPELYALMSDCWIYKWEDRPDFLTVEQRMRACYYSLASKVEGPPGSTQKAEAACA

[8] = biological target: Ribosomal protein S6 kinase alpha-2 (Homo sapiens) (UniProt Q15349); experiment: Selectivity interaction (KinomeScan (DiscoverX)) EUB0000311b RPS6KA2; conditions: at 1 µM
[9] = biological target: T4, Glycogen synthase kinase-3 beta; experiment: Selectivity interaction (KinomeScan (DiscoverX)) EUB0000618a GSK3B; conditions: at 10 µM
[10] = biological target: 5'-AMP-activated protein kinase catalytic subunit alpha-1 (Homo sapiens, UniProt Q13131); experiment: Selectivity interaction (Kinase panel (KiNativ target engagement assay in Jurkat cells)) EUB0001635a PRKAA1; assay type: cell-based; conditions: Selectivity number of off-targets 0.0, Selectivity number of targets 233.0, Source Knowledge https://www.sciencedirect.com/science/article/pii/S2451945619300674?via%3Dihub, at 1 µM
Chain of 5'-AMP-activated protein kinase catalytic subunit alpha-1 (Q13131 whole entry, looked up): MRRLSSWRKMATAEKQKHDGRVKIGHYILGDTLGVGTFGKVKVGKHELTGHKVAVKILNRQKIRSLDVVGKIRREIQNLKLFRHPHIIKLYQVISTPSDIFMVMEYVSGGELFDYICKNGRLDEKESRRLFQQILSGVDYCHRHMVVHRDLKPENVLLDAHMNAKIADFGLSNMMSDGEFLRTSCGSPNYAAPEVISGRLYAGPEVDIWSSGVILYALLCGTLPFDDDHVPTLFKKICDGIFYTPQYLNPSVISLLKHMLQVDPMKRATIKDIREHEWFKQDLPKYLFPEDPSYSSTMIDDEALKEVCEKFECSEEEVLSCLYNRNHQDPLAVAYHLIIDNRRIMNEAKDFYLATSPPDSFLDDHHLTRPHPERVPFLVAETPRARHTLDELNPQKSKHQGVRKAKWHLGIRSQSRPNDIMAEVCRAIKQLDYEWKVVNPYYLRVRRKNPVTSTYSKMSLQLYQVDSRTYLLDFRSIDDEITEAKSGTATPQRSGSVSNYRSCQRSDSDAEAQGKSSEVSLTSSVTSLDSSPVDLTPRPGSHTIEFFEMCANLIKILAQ

T4 sequence (P49841 whole entry, looked up): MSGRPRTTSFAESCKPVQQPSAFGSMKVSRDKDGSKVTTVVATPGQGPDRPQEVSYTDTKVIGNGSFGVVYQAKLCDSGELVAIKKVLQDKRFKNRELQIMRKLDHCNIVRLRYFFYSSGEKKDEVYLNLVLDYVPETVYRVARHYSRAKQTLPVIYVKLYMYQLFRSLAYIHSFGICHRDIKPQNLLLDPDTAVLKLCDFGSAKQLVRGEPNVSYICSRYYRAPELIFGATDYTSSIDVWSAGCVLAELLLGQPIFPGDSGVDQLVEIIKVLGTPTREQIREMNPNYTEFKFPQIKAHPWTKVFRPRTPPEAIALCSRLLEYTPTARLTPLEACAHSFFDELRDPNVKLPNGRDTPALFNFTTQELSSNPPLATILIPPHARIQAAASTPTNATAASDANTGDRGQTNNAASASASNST
Chain of Ribosomal protein S6 kinase alpha-2 (Homo sapiens) (Q15349 whole entry): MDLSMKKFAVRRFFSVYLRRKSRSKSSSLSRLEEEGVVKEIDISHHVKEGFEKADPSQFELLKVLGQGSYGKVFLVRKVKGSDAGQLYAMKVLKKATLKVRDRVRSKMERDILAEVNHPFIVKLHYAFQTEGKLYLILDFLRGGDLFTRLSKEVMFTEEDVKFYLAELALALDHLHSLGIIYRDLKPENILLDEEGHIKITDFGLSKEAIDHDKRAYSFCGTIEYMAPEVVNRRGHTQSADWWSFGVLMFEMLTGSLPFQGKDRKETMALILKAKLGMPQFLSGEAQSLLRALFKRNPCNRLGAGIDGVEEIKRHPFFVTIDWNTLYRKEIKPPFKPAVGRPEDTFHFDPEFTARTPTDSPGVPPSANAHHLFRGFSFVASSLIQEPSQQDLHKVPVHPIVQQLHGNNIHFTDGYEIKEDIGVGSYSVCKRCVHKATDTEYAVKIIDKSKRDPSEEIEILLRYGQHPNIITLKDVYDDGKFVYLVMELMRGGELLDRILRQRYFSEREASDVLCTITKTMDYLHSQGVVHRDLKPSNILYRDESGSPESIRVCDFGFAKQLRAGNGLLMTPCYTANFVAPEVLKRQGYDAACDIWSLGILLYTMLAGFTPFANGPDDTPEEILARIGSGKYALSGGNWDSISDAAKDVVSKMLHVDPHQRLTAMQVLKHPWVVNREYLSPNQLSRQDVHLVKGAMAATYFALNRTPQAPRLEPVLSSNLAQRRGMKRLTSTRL
Chain of Serine/threonine-protein kinase Chk2 (Homo sapiens) (O96017 whole entry): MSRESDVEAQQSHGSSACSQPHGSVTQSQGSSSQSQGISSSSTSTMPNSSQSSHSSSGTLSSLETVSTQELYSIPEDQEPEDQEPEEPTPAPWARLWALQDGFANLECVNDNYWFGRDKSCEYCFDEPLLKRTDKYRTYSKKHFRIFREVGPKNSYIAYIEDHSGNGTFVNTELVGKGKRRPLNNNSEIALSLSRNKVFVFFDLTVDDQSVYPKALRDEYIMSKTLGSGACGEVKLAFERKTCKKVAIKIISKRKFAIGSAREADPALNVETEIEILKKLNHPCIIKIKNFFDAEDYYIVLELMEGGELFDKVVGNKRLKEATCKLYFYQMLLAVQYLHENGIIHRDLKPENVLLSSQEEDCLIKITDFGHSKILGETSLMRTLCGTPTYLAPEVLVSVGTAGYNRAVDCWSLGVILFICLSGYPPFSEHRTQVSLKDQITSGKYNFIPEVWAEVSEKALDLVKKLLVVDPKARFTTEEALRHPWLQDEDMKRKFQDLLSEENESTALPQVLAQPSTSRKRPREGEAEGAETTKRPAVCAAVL
Chain of Ephrin type-A receptor 2 (Homo sapiens) (P29317 whole entry): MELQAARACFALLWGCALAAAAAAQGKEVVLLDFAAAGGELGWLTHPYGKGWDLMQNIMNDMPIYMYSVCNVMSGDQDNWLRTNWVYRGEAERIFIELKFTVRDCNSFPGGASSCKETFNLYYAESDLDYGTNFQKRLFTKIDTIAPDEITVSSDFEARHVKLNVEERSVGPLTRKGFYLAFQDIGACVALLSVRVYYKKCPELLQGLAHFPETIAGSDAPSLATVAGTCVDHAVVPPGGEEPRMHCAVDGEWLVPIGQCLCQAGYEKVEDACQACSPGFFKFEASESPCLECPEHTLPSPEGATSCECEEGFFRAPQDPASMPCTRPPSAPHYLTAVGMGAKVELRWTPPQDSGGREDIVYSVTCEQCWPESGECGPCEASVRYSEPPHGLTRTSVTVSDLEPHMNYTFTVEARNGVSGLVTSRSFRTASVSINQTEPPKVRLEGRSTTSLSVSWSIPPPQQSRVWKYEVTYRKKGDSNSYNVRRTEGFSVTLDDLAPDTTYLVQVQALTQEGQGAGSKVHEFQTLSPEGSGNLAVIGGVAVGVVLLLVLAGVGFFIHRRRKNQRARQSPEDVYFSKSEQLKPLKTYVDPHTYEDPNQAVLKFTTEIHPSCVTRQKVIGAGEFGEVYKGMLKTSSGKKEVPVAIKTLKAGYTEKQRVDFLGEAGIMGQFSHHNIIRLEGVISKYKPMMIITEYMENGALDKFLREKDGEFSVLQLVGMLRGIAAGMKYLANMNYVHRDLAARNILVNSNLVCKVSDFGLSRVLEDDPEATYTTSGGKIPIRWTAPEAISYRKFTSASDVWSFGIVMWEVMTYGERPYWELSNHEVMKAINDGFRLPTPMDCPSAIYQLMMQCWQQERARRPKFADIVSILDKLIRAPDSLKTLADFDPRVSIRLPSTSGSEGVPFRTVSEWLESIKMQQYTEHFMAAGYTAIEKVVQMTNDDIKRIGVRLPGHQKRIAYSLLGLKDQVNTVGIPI

## Cn1cc(-n2cnc3c(NCc4nc5cc(Cl)c(Cl)cc5[nH]4)nc(N4CCOCC4)nc32)cn1
[1]
  % of control: 12.8%

## Cc1cc(F)c(C(=O)Nc2cccc(-c3nncn3C(C)C)n2)cc1-n1cnc(C2CC2)c1
[2]
  % of control: 57%

## COCC(=O)NC/C=C/c1ccc2ncnc(Nc3ccc(Oc4ccc(C)nc4)c(C)c3)c2c1 [CP-724714]
[3]
  % of control: 91%

## COc1cc(N(C)c2ccnc3ccc(C(F)(F)F)cc23)cc(OC)c1OC
[4]
  % binding: 88%
[5]
  % binding: 100%

## C=CC(=O)Nc1cc(-n2c(=O)ccc3cnc4ccc(-c5ccc(NS(C)(=O)=O)cc5)cc4c32)ccc1C
[6]; at 1 µM
  % of control: 100%
[6]; at 10 µM
  % of control: 77%
[7]
  % of control: 91%

## CCc1ccccc1C(=O)Nc1n[nH]c2c(C)c(F)c(C3C(C#N)=C(C)N(C)C(C)=C3C#N)cc12 [BAY-3827]
[8]
  % of control: 0%

## O[C@H]1CC[C@H](Nc2ncc3nc(Nc4c(F)cc(F)cc4F)n([C@H]4CCOC4)c3n2)CC1
[9]
  % of control: 95%

## C=CC(=O)Nc1ccc(C(=O)Nc2[nH]nc3c2CN(C(=O)N[C@H](CN(C)C)c2ccccc2)C3(C)C)cc1
[10]
  % of engagement: -51.7%
